The target in the assay is T1, human serotonin transporter (hSERT) (Homo sapiens, UniProt P31645).
T1 construct: expressed in transfected cells; host or cells: HEK-293 (human embryonic kidney cells), stably transfected
The assay is described as follows: Test A: uptake of 3H-serotonin into human embryonic kidney cells (HEK-293) expressing the human serotonin transporter. The format is cell-based. Here is the method: Uptake of ^3H-biogenic amines into human embryonic kidney cells expressing the human serotonin (5-HT), noradrenalin or dopamine transporter
Human embryonic kidney cells (HEK-293) stably transfected with either the human serotonin transporter (hSERT), noradrenalin transporter (hNET) or dopamine transporter (hDAT) were cultured under standard cell culture techniques (cells were grown at 37°C and 5% CO2 in DMEM-culture media (supplemented with 10% dialysed foetal calf serum (FCS), 2mM 1-glutamine and 250µg/ml geneticin)). Cells were harvested for the assay to yield a cell suspension of 750,000 cells/ml.
Assays were carried out in 96-well filter bottom plates. Cells (7500 cells/assay well) were pre-incubated in standard assay buffer containing either test compound, standard inhibitor or compound vehicle (1% DMSO) for 5 minutes. Reactions were started by addition of either ^3H-Serotonin, ^3H-Noradrenaline or ^3H-Dopamine substrates. All reactions were carried out at room temperature in a shaking incubator. Incubation times were 5 minutes for the hSERT and hDAT assays and 15 minutes for the hNET assay. Reactions were terminated by removal of the reaction mixture using a vacuum manifold followed by rapid washing with ice cold assay buffer. The quantity of ^3H-substrate incorporated into the cells was then quantified.
Assay plates were dried in a microwave oven, scintillation fluid added, and radioactivity measured. Potency of test compounds was quantified as IC50 values (concentration of test compound required to inhibit the specific uptake of radiolabelled substrate into the cells by 50%).
Standard Assay Buffer Composition: • Trizma hydrochloride (26mM) • NaCl (124mM) • KCl (4.5mM) • KH2PO4 (1.2mM) • MgCl2.6H2O (1.3mM) • Ascorbic acid (1.136mM) • Glucose (5.55mM) • pH 7.40 • CaCl2 (2.8mM) • Pargyline (100µM)
Note: The pH of the buffer was adjusted to 7.40 with 1M NaOH before addition of CaCl2 and pargyline.

The mark [1] stands for this setting: inhibition of the up-take of serotonin by human serotonin transporters, HEK-293 hSERT cells, 3H-5HT (50nM), incubation 5 minutes, room temperature, read-out: IC50 value.

Structures are written as SMILES. Structures can show the parent of a compound that is named as a salt. Where two headings read alike, the source gives them in different places.

T1 sequence (P31645 whole entry): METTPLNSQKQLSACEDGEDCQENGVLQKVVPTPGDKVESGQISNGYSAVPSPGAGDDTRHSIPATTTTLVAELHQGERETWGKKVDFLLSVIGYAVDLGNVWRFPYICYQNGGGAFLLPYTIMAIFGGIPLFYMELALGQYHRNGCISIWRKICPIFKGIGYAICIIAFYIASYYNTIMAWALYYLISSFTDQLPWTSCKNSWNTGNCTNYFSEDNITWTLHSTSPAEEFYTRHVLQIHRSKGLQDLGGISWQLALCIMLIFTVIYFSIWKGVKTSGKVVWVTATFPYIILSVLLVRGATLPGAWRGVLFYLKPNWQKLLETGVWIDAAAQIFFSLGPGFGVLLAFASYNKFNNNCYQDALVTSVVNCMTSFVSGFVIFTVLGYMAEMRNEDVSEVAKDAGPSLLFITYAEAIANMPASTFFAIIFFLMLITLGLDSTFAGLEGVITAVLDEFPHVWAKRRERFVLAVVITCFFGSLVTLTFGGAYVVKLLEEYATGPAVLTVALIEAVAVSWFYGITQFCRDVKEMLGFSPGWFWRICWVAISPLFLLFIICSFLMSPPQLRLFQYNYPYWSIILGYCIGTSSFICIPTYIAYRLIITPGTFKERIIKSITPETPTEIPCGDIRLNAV

As a reminder, the IC50 is the concentration that gives 50% inhibition. As for `CN[C@H]1CC[C@@H](c2ccc(Cl)c(Cl)c2)c2ccc(CNC(N)=O)cc21` [Example 37, Cis-(1S)-N-methyl-7-((N-aminocarboxy)aminomethyl)-4-(3,4-dichlorophenyl)-1,2,3,4-tetrahydro-1-naphthalenamine hydrochloride], under setting [1], the half-inhibitory concentration (IC50) was ≤ 100 nM.

Consider `CN[C@H]1CC[C@@H](c2ccc(Cl)c(Cl)c2)c2ccc(-c3ncn[nH]3)cc21` [Example 55, Cis-(1S)-N-methyl-7-(3-(1,2,4-triazolyl))-4-(3,4-dichlorophenyl)-1,2,3,4-tetrahydro-1-naphthalenamine hydrochloride], for which the IC50 under setting [1] was ≤ 100 nM.

`CN[C@H]1CC[C@@H](c2ccc(Cl)c(Cl)c2)c2ccc(-c3ncnn3C)cc21` [Example 56, Cis-(1S)-N-methyl-7-(3-(N(2)methyl-1,2,4-triazolyl)-4-(3,4-dichlorophenyl)-1,2,3,4-tetrahydro-1-naphthalenamine hydrochloride]: the IC50 under setting [1] is ≤ 100 nM.

Consider `CN[C@H]1CC[C@@H](c2ccc(Cl)c(Cl)c2)c2ccc(CS(C)(=O)=O)cc21` [Example 74, Cis-(1S)-N-methyl-7-((methylsulphonyl)methyl)-4-(3,4-dichlorophenyl)-1,2,3,4-tetrahydro-1-naphthalenamine], for which the IC50 was ≤ 100 nM.

For the origin of these results see patent EP1157002B1, “1,2,3,4-TETRAHYDRO-1-NAPHT[…] USEFUL IN THERAPY” (Pfizer Limited, priority 1999, dated 2000).
